Source: patent publication US20210206744A1, “BENZIMIDAZOLE COMPOUNDS AS AGRICULTURAL CHEMICALS” (REDAG CROP PROTECTION LTD, priority 2017, published 2021)

Experiments:
[1] = test system: Pythium ultimum; assay: Amended agar assay; assay type: cell-based; set-up: key to % control Pythium ultimum (% reduction in colony growth compared to the control plate): D: no control detected at this concentration; C: up to 50% control; B: from 50 to 99% control; A: a control of greater than 99%, i.e. no detectable colony growth; details: potato dextrose agar amended with compound at 2 ppm, 18° C., 2 to 7 days; for inhibition of growth at 2 ppm: Globisporangium ultimum, read-out: % control Pythium ultimum (% reduction in colony growth compared to the control plate)
Method: Amended Agar Assay Testing was carried out on potato dextrose agar (PDA) amended with each compound at a test concentration of 2 ppm. Amended agar was poured into three replicate 9 cm petri dishes. Each replicate dish was inoculated in the centre with a 5 mm agar plug taken from the leading edge of a culture aged between 2 and 7 days old; the age of the culture was dependent on the growth rate of the pathogen being tested. The test pathogen was Pythium ultimum. Plates were incubated at 18° C. and the diameter of each colony measured before growth on the fastest growing plate reached the plate edge. This varied between 2 and 7 days depending on the growth rate of test pathogens. The % reduction in colony growth compared to the control plate was calculated. The results are provided in Table 1, in which D represents no control detected at this concentration; C represents up to 50% control; B from 50 to 99% control; and A represents a control of greater than 99%, i.e. no detectable colony growth.

[2] = test system: Phytophthora cactorum; assay: 96 well plate test; assay type: cell-based; set-up: key to EC50 Phytophthora cactorum: G: no control detected at 2 ppm; F: an EC50 of ≥2 ppm; an EC50 of less than 2 ppm; details: agar amended to 2, 0.2, 0.02 and 0.002 ppm, 18° C., assessed after 2 to 3 days; for EC50: Phytophthora cactorum
Method: Compounds were screened in 96 well plates with 10 compounds per plate. Each compound was screened using agar amended to 2, 0.2, 0.02 and 0.002 ppm, with proline at 50 and 10 ppm and 0.2% DMSO used as controls. Each test concentration and standard was replicated twice on a plate. Compounds were screened against Phytophthora cactorum. The agar used in the test is a 1% potato dextrose agar. 1000 spores/mL agar were added to the appropriate agar.
A ×10 stock solution in 2% DMSO was produced for each dose i.e. 20, 2, 0.2 and 0.02 ppm, and 10 μl of this added to the appropriate wells on the plate. An equivalent amount of 2% DMSO and proline stock at 500 and 100 ppm were added for the controls. To each well 90 μl of the appropriate agar spore suspension was added to give the required final well concentrations. Plates were incubated at room temperature (18° C.) and assessed after 2 to 3 days. The amount of pathogen growth in each well was compared to the DMSO controls and an EC50 concentration was calculated. The results are provided in Table 1 in which G represents no control detected at 2 ppm, F represents an EC50 of ≥2 ppm, and E represents an EC50 of less than 2 ppm.

EC50 Phytophthora cactorum [2]	EC50 [2] [µg/mL]	SMILES	% control Pythium ultimum (% reduction in colony growth compared to the control plate) [1]	inhibition of growth at 2 ppm [1] [%]
G		CCCCC(=O)Nc1nc(COc2nc3c(Cl)cccc3n2-c2nnnn2C)cs1 [Compound 43]	D	
	< 2	CC(C)CCC(=O)Nc1cccc(COc2nc3c(Cl)cccc3n2-c2nnnn2C)n1 [Compound 9]		> 99
	< 2	Cn1nnnc1-n1c(OCc2cccc(NC(=O)CC(C)(C)C)n2)nc2c(Cl)cccc21 [Compound 33]		> 99

Second part, the compound before the results:

SMILES	EC50 Phytophthora cactorum [2]	EC50 [2] [µg/mL]	% control Pythium ultimum (% reduction in colony growth compared to the control plate) [1]	inhibition of growth at 2 ppm [1] [%]
Cn1nnnc1-n1c(OCc2cccc(NC(=O)C3CC3)n2)nc2c(Cl)cccc21 [Compound 1, N-(6-(((4-Chloro-1-(1-methyl-1H-tetrazol-5-yl)-1H-benzo[d]imidazol-2-yl)oxy)methyl)pyridin-2-yl)cyclopropanecarboxamide]		< 2		> 99
Cn1nnnc1-n1c(OCc2cccc(NC(=O)OC3CCCC3)n2)nc2c(Cl)cccc21 [Compound 17]		< 2		> 99
COc1cc(F)cc2c1nc(OCc1cccc(NC(=O)OC(C)(C)C)n1)n2-c1nnnn1C [Compound 4]		< 2		> 99
CC(C)COC(=O)Nc1cccc(COc2nc3c(Br)cccc3n2-c2nnnn2C)n1 [Compound 38]		< 2		> 99
